A short description of data set [1]: Inhibition of PBP1b in Pseudomonas aeruginosa ATCC 27853 after 20 mins by fluorescence assay.
The nature of data set [2]: Inhibition of PBP3 in Pseudomonas aeruginosa ATCC 27853 after 20 mins by fluorescence assay.
Data set [3] concerns Pseudomonas aeruginosa. Put plainly: Antibacterial activity against Pseudomonas aeruginosa 1042-06 by broth microdilution method. Type of data set: functional. (In broth dilution the organism is exposed to a series of concentrations in liquid medium.)
Data set [4] is described as follows: Inhibition of PBP1a in Pseudomonas aeruginosa ATCC 27853 after 20 mins by fluorescence assay.
In the next data set the test system is Acinetobacter baumannii. The experiment in a line: Antibacterial activity against Acinetobacter baumannii AB-3167 by broth microdilution method. Type of data set: functional.
For data set [5], the system named is Klebsiella pneumoniae. The experiment in a line: Antibacterial activity against Klebsiella pneumoniae 1487-07 by broth microdilution method. Type of data set: functional.
A short description of data set [6]: Inhibition of PBP2 in Pseudomonas aeruginosa ATCC 27853 after 20 mins by fluorescence assay.
A short description of data set [7]: Fraction unbound in mouse plasma. Type of data set: ADME, cell-free.
A short description of data set [8]: Fraction unbound in rat plasma. Type of data set: ADME, cell-free.
Data set [9] has as its system Pseudomonas aeruginosa. The experiment in a line: microbe, parasite or virus in culture. The note with it: 1091-05.
Description: Antibacterial activity against Pseudomonas aeruginosa 1091-05 by broth microdilution method
A short description of data set [10]: Fraction unbound in human plasma. Type of data set: ADME, cell-free.
For another data set, the system named is Rattus norvegicus. Put plainly: Intrinsic clearance in Wistar Han rat at 1 mg/kg, iv by LC/MS/MS analysis. Type of data set: ADME, organism-based. More on the design: dose 1 mg/kg, route intravenous. The note with it: in vivo.
Data set [11] relates to Klebsiella pneumoniae. The experiment in a line: Antibacterial activity against Klebsiella pneumoniae 1000-02 by broth microdilution method. Type of data set: functional.
Data set [12] in a line: Plasma clearance in Wistar Han rat at 1 mg/kg, iv by LC/MS/MS analysis. Type of data set: ADME, organism-based. On the set-up: dose 1 mg/kg, route intravenous.
Data set [13] relates to Klebsiella pneumoniae. The experiment in a line: Antibacterial activity against Klebsiella pneumoniae expressing defined beta-lactamase by broth microdilution method. Type of data set: functional.
Data set [14] has as its system Escherichia coli. The experiment in a line: Antibacterial activity against Escherichia coli expressing ESBL by broth microdilution method. Type of data set: functional.
For a further data set, the system named is Acinetobacter sp. The experiment in a line: Antibacterial activity against Acinetobacter spp. by broth microdilution method. Type of data set: functional.
In data set [15] the test system is Escherichia coli. The experiment in a line: Antibacterial activity against Escherichia coli expressing defined beta-lactamase by broth microdilution method. Type of data set: functional.
Data set [16] relates to Escherichia coli. The experiment in a line: Antibacterial activity against Escherichia coli expressing CTX-M by broth microdilution method. Type of data set: functional.
Data set [17] deals with Pseudomonas aeruginosa. The experiment in a line: Antibacterial activity against Pseudomonas aeruginosa from cystic fibrosis patients by broth microdilution method. Type of data set: functional.
The test system of data set [18] is Pseudomonas aeruginosa. The experiment in a line: Antibacterial activity against Pseudomonas aeruginosa expressing metallo-beta-lactamase by broth microdilution method. Type of data set: functional.
Data set [19] concerns Klebsiella pneumoniae. The experiment in a line: Antibacterial activity against Klebsiella pneumoniae expressing KPC by broth microdilution method. Type of data set: functional.
The test system of data set [20] is Klebsiella pneumoniae. Put plainly: Antibacterial activity against Klebsiella pneumoniae expressing ESBL by broth microdilution method. Type of data set: functional.

Structures are written as SMILES. Converted amounts (≈) assume the structure as drawn.

For `Nc1nc(/C(=N/OC2(C(=O)O)CCC2)C(=O)N[C@@H]2C(=O)N(S(=O)(=O)O)[C@@H]2CNC(=O)NCc2cc(=O)c(O)cn2O)cs1`, the IC50 (usually the point on the concentration scale where inhibition reaches its midpoint) in data set [1] was 2460 nM; in data set [2], 66 nM; in [4], 340 nM; in [6] it was over 300 µM. Also, the MIC against Pseudomonas aeruginosa [3] amounted to 1 µg/mL (≈ 1.55 µM); against Acinetobacter baumannii, 0.125 µg/mL (≈ 0.194 µM); against Klebsiella pneumoniae [5], 0.5 µg/mL (≈ 0.776 µM).
Consider `CC(C)(O/N=C(\C(=O)N[C@@H]1C(=O)N(S(=O)(=O)[O-])[C@@H]1CNC(=O)OCc1cc(=O)c(O)cn1O)c1csc(N)n1)C(=O)[O-].[Na+].[Na+]`, for which the MIC in the data set with Pseudomonas aeruginosa [3] came out at 2 µg/mL; against Acinetobacter baumannii, 0.125 µg/mL; with Pseudomonas aeruginosa [9], 0.25 µg/mL; against Klebsiella pneumoniae [11], 4 µg/mL. The fraction unbound (usually free concentration divided by total concentration) in data set [7] was found to be 0.72; in [8], 0.61; in data set [10], 0.51. This compound returned a CL with Rattus norvegicus of 29 mL/min/kg. Moreover, in data set [12], the clearance – broadly, the rate of elimination divided by the concentration – worked out at 14.2 mL/min/kg.
Consider `NCC[C@H](O)C(=O)N[C@@H]1C[C@H](N)[C@@H](O[C@H]2O[C@H](CN)[C@@H](O)[C@H](O)[C@H]2O)[C@H](O)[C@H]1O[C@H]1O[C@H](CO)[C@@H](O)[C@H](N)[C@H]1O` [AMIKACIN], for which the MIC50 (in general, the lowest concentration that inhibits either 50% of growth or 50% of the strains tested, depending on the study) was found to be 4 µg/mL (≈ 6.83 µM) against Klebsiella pneumoniae [13]; 8 µg/mL (≈ 13.7 µM) against Escherichia coli [14]; 4 µg/mL (≈ 6.83 µM) against Acinetobacter sp.; 1 µg/mL (≈ 1.71 µM) with Escherichia coli [15]; 8 µg/mL (≈ 13.7 µM) against Escherichia coli [16]; 8 µg/mL (≈ 13.7 µM) against Pseudomonas aeruginosa [17]. Besides, the MIC50 against Pseudomonas aeruginosa [18] is over 64 µg/mL; in the data set on Klebsiella pneumoniae [19], 32 µg/mL (≈ 54.6 µM); against Klebsiella pneumoniae [20], 4 µg/mL (≈ 6.83 µM). The MIC90 (as a rule, an inhibitory concentration at the 90% level, which refers to growth in some studies and to a panel of isolates in others) against Klebsiella pneumoniae [13] was over 64 µg/mL; in the data set on Escherichia coli [14] it was 64 µg/mL (≈ 109 µM); in the data set with Acinetobacter sp., over 64 µg/mL; in the data set with Escherichia coli [15] it was 16 µg/mL (≈ 27.3 µM); against Escherichia coli [16], 32 µg/mL (≈ 54.6 µM); in the data set with Pseudomonas aeruginosa [17], over 64 µg/mL. Besides, the MIC90 was over 64 µg/mL in the data set on Pseudomonas aeruginosa [18], over 64 µg/mL against Klebsiella pneumoniae [19] and 64 µg/mL (≈ 109 µM) against Klebsiella pneumoniae [20]. In addition, the MIC against Pseudomonas aeruginosa [3] was found to be 8 µg/mL (≈ 13.7 µM); against Acinetobacter baumannii it was 1 µg/mL (≈ 1.71 µM); in the data set on Pseudomonas aeruginosa [9] it was 2 µg/mL (≈ 3.42 µM); against Klebsiella pneumoniae [5] it was 64 µg/mL (≈ 109 µM).
Turning to `C[C@H]1[C@H](NC(=O)/C(=N\OC(C)(C)C(=O)O)c2csc(N)n2)C(=O)N1S(=O)(=O)O` [AZTREONAM], the MIC50 against Klebsiella pneumoniae [13] came to 64 µg/mL (≈ 147 µM); with Escherichia coli [14], 64 µg/mL (≈ 147 µM); against Acinetobacter sp., 32 µg/mL (≈ 73.5 µM); in the data set on Escherichia coli [15] it was 4 µg/mL (≈ 9.19 µM); against Escherichia coli [16], 64 µg/mL (≈ 147 µM); with Pseudomonas aeruginosa [17], 8 µg/mL (≈ 18.4 µM). In addition, the MIC50 in the data set with Pseudomonas aeruginosa [18] is 8 µg/mL (≈ 18.4 µM); against Klebsiella pneumoniae [19], over 64 µg/mL; in the data set on Klebsiella pneumoniae [20] it was 32 µg/mL (≈ 73.5 µM). The MIC90 against Klebsiella pneumoniae [13] was over 64 µg/mL; in the data set on Escherichia coli [14], over 64 µg/mL; against Acinetobacter sp. it was over 64 µg/mL; against Escherichia coli [15] it was over 64 µg/mL; in the data set with Escherichia coli [16] it was over 64 µg/mL; in the data set with Pseudomonas aeruginosa [17], 64 µg/mL (≈ 147 µM). The figures for the MIC90 against Pseudomonas aeruginosa [18], against Klebsiella pneumoniae [19] and in the data set on Klebsiella pneumoniae [20] were 16 µg/mL (≈ 36.7 µM), over 64 µg/mL and over 64 µg/mL, respectively. Also, the IC50 in [1] is 2870 nM; in data set [2], 8 nM; in data set [4] it was 3340 nM; in data set [6], over 300 µM. Further, the MIC was 64 µg/mL (≈ 147 µM) with Pseudomonas aeruginosa [3]; 4 µg/mL (≈ 9.19 µM) against Acinetobacter baumannii; 4 µg/mL (≈ 9.19 µM) in the data set with Pseudomonas aeruginosa [9]; over 64 µg/mL against Klebsiella pneumoniae [11]; over 64 µg/mL against Klebsiella pneumoniae [5].

The record behind these values is ChEMBL document CHEMBL2407067, “Pyridone-conjugated monobactam antibiotics with gram-negative activity” (J Med Chem, 2013).
